Source: article PMC10460844, “Real‐Time Monitoring of Multitarget Antimicrobial Mechanisms of Peptoids Using Label‐Free Imaging with Optical Diffraction Tomography” (Advanced Science, 2023)
Where two headings read alike, the source gives them in different places. Square brackets hold non-standard residues; d marks the D form. Peptide text beside a SMILES is read from it. Gly(N(CH2)2(3-indolyl)) = O=C(O)CNCCc1c[nH]c2ccccc12; Nspe = C[C@H](NCC(=O)O)c1ccccc1; Nlys = NCCCCNCC(=O)O

Legend:
E. coli ATCC 25922 = assay: Thioflavin S fluorescence imaging of intracellular aggregation; assay type: cell-based; details: 29 and peptoid 1 at 4 × MIC, control peptides 2 × MIC
[1] = test system: MRC-5 human lung fibroblast cells; assay type: cell-based
Description: 4. Cell culture and cytotoxicity test using MTS assay
(Seoul, South Korea), human keratinocytes (HaCaT) were provided by the Skin Research Institute R&D Center of Amore Pacific Company (Yongin, South Korea). All cells were grown in Dulbecco's modified Eagle’s medium (DMEM) supplemented with 10% fetal bovine serum at 37 °C in an atmosphere containing 5% CO2. The 3-(4,5-dimethylthiazol-2- […]
assays were used to determine the effects of peptoids on cell growth.[4] Aliquots (100 µL) of media containing 1.3×10^4 MRC-5 cells/mL or 3×10^4 HaCaT cells/mL were distributed into each well of a 96-well plate (Eppendorf, Hamburg, Germany). The cells were allowed to attach and were grown in a humidified atmosphere containing 5% CO2 at 37 °C for 24 h.
When the cell density reached approximately 70% confluency, the medium was replaced with serial dilutions of the peptoid stock in DMEM and incubated for an additional 24 h. At this point, 20 µL of the CellTiter 96 aqueous non-radioactive cell proliferation assay reagent (Promega, Madison, WI, USA), which contains the tetrazolium compound, was added to each well. Plates were incubated for 4 h at 37 °C to allow time for metabolism. The MTS-formazan products in viable cells were measured at 490 nm using a microplate reader, and the percentage of cell viability (%) was calculated by comparing readings to the values of untreated wells. Percentage values of cell viability were calculated as A/(A control)×100, where A is the absorbance of the test well and A control is the average absorbance of wells containing untreated cells. […]

rat erythrocytes = assay: Hemolysis assay; assay type: cell-based
Procedure, shortened: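 Washed Sprague-Dawley rat erythrocytes (10% suspension in PBS pH 7.4) mixed with peptoids (0–100 µM), 60 min at 37 °C; supernatant A540 expressed as % of 1% Triton X-100 lysis. HC10/HC50 are concentrations giving 10%/50% hemolysis; Hmax is hemolysis at 100 µM.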

K. pneumonia ESBL 61962 = assay type: cell-based
[2] = SAXS of peptoid self-assembly in aqueous environment; assay type: physicochemical; details: for self-assembly state in aqueous solution: aqueous environment
Description: Prior to the experiment, peptoids were dissolved in Tris buffer (50 mM, pH 7.4). This peptoid stock solution (5 mg mL^−1) was diluted as needed. Unilamellar lipid vesicles were prepared using synthetic DMPC, DMPG, and DMPE‐PEG at a 75:22.5:2.5 molar ratio. The lipids were first dissolved in a 1:3 (v/v) methanol:chloroform solution. To make a lipid film, the organic solvents were removed completely under vacuum using a rotary evaporator with a Vacuubrand vacuum pump. The resulting lipid film was hydrated at 35 °C using Tris buffer (50 mM, pH 7.4). After hydration, the dispersion was sonicated for 15 min to promote the formation of smaller unilamellar vesicles. This was followed by the extrusion of lipid vesicles through a 100 nm pore diameter polycarbonate filter (>21 times) using an Avanti mini‐extruder fitted with two 1 mL airtight syringes. Immediately before the SAXS data collection, a peptoid solution with the adequate concentration for the target lipid:peptoid ratio was mixed 1:1 with the lipid solution (5 mg mL^−1) using a micropipette. SAXS experiments were performed at the automated BM29 bioSAXS beamline at the European Synchrotron Radiation Facility (ESRF) in Grenoble, France.^[ [47] ^] […] All experiments were conducted at 37 °C. The data set was calibrated to an absolute intensity scale using water as a primary standard. Samples (45 µL) were run through a capillary using the flow mode of the automated sample changer.^[ [48] ^] SAXS data was collected in ten successive frames of 0.5 s each to monitor radiation damage, and the data reduction was carried out using BioXTAS RAW program.^[ [49] ^]
All scattering models were implemented and fitted to the experimental SAXS data using the QtiSAS software.^[ [50] ^]

S. aureus MRSA C623 = assay type: cell-based
E. coli ESBL 63103 = assay type: cell-based
[3] = SAXS, cylindrical α-helical bundle model, 5 mg mL^−1

| SMILES | Th S fluorescence (intracellular biomass aggregation) (E. coli ATCC 25922) | MIC K. pneumonia ESBL 61962 (K. pneumonia ESBL 61962) [µM] | self-assembly state in aqueous solution ([2]; SAXS, 5 mg mL^−1) | MIC S. aureus MRSA C623 (S. aureus MRSA C623) [µM] | H max (100 µM) (rat erythrocytes) [%] | HC10 (rat erythrocytes; pH 7.4) [µM] | HC50 (rat erythrocytes; pH 7.4) [µM] | HC10 (rat erythrocytes; red cells of rat) [µM] | MIC E. coli ESBL 63103 (E. coli ESBL 63103) [µM] | further results |
| --- | --- | --- | --- | --- | --- | --- | --- | --- | --- | --- |
| C[C@@H](c1ccccc1)N(CC(N)=O)C(=O)CN(C(=O)CN(CCCCN)C(=O)CN(C(=O)CN(C(=O)CN(CCCCN)C(=O)CN(C(=O)CN(C(=O)CN(CCCCN)C(=O)CN(C(=O)CN(C(=O)CNCCCCN)[C@@H](C)c1ccccc1)[C@@H](C)c1ccccc1)[C@@H](C)c1ccccc1)[C@@H](C)c1ccccc1)[C@@H](C)c1ccccc1)[C@@H](C)c1ccccc1)[C@@H](C)c1ccccc1 [peptoid 1, reference compound] (H-[Nlys][Nspe][Nspe][Nlys][Nspe][Nspe][Nlys][Nspe][Nspe][Nlys][Nspe][Nspe]-NH2) | enhanced Th S fluorescence | – | – | – | – | – | – | – | – | LC50 MRC-5 ([1]; MTS assay, 24 h exposure in DMEM, concentration killing 50% of cells): 8.1 µM; HC10 (rat erythrocytes; Table S2, 10% hemolysis in rat erythrocytes, PBS pH 7.4, 37 °C 60 min, mean of triplicate): 8.3 µM; HC50 (rat erythrocytes; Table S2, 50% hemolysis in rat erythrocytes, PBS pH 7.4, 37 °C 60 min, mean of triplicate): 22.9 µM; HC10 (rat erythrocytes; Table S3, counter-ion exchange series, 10% hemolysis in rat erythrocytes, mean of triplicate): 15.9 µM; HC50 (rat erythrocytes; Table S3, counter-ion exchange series, 50% hemolysis in rat erythrocytes, mean of triplicate): 49.0 µM; Hmax (100 µM) (rat erythrocytes; Table S3, counter-ion exchange series, hemolysis at 100 µM): 72.1±2.1%; H max (100 µM) (rat erythrocytes; percentage of hemolysis at the highest concentration tested (100 µM), rat erythrocytes): 112.3 ± 0.7% |
| C[C@@H](c1ccccc1)N(CC(=O)N(CCCCN)CC(=O)N(CC(=O)N(CC(=O)N(CCCCN)CC(=O)N(CC(=O)N(CC(=O)N(CCCCN)CC(=O)N(CCc1c[nH]c2ccccc12)CC(=O)N(CCc1c[nH]c2ccccc12)CC(N)=O)[C@@H](C)c1ccccc1)[C@@H](C)c1ccccc1)[C@@H](C)c1ccccc1)[C@@H](C)c1ccccc1)C(=O)CN(C(=O)CNCCCCN)[C@@H](C)c1ccccc1 [peptoid 11] (H-[Nlys][Nspe][Nspe][Nlys][Nspe][Nspe][Nlys][Nspe][Nspe][Nlys][Gly(N(CH2)2(3-indolyl))][Gly(N(CH2)2(3-indolyl))]-NH2) | – | 6.3 to 12.5 | larger defined nanostructures | 3.1 to 6.3 | 103.4 ± 3.2 | 8.3 | 22.2 | 6.9 | 3.1 to 6.3 | fraction of dimers [2, 3]: 10%; fraction of monomers [2, 3]: 30%; fraction of trimers [2, 3]: 60%; LC50 MRC-5 [1]: 6.9 µM; Hmax (100 µM) (rat erythrocytes): 111.9±2.7%; HC50 (rat erythrocytes; red cells of rat): 27.5 µM |
| C[C@@H](c1ccccc1)N(CC(=O)N(CCCCN)CC(=O)N(CCc1c[nH]c2ccccc12)CC(=O)N(CCc1c[nH]c2ccccc12)CC(N)=O)C(=O)CN(CCCCN)C(=O)CN(CCCCN)C(=O)CN(C(=O)CN(C(=O)CN(CCCCN)C(=O)CN(C(=O)CN(C(=O)CNCCCCN)[C@@H](C)c1ccccc1)[C@@H](C)c1ccccc1)[C@@H](C)c1ccccc1)[C@@H](C)c1ccccc1 [peptoid 29] (H-[Nlys][Nspe][Nspe][Nlys][Nspe][Nspe][Nlys][Nlys][Nspe][Nlys][Gly(N(CH2)2(3-indolyl))][Gly(N(CH2)2(3-indolyl))]-NH2) | significantly increased emission | >25 | remained monomeric and unstructured | 3.1 to 6.3 | 9.8 ± 1.8 | > 100 | > 100 | 88.6 | ≥25 | fraction of big clusters ([2]; SAXS fit, depending on concentration): 0.003–0.008; radius of gyration ([2]; SAXS, Tris buffer 50 mM pH 7.4, 37 °C, random Gaussian chain model): 10 Å; HC50 (rat erythrocytes): > 100 µM |
